Measured values from patent publication US9561276B2, “Method of treating onychomycosis” (DUSA PHARMACEUTICALS, INC., priority 2012, dated 2017).
Structures can show the parent of a compound that is named as a salt.

Experiments:
[1] = system: onychomycosis of the toenail; experiment: ALA-based PDT of onychomycosis with 10 day delay before red light (Example 1)
Protocol: A 5 percent ALA solution was prepared by dilution of 20 percent ALA Topical Solution (Levulan® Kerastick® (aminolevulinic acid HCl) for Topical Solution, 20%). The ALA solution was then applied to a healthy volunteer suffering from mild to moderate onychomycosis involving the hallux (proximal or big toe) toenail and the second toenail of the left foot. The ALA solution was applied liberally to the nail surface and the periungual skin areas. The entire toe was wrapped in an occlusive dressing (Tegaderm®) for 12 hours. Twenty-four hours post ALA application, the treated area was examined for porphryin fluorescence using a long wave UV light (Wood's Light) as an excitation source.
The subject was instructed to avoid light exposure to the treated toes. Fluorescence evaluation was performed again 10 days post ALA application.
The subject was then treated with 100 Joules/cm^2 of red light using the Sciencetech 7500 illuminator, causing an activation reaction.
The subject was again instructed to avoid light exposure to the treated toes. Follow up evaluations were performed 5 and 20 days post light treatment (15 and 30 days post ALA application).

mouse skin = conditions: cited from earlier work
[2] = system: onychomycosis of the toenail; conditions: in vivo; cited from earlier work
acne lesions = conditions: in vivo; cited from earlier work
onychomycosis = conditions: cited from earlier work
[3] = 100 Joules/cm^2 red light 10 days post ALA

| Structure (SMILES) | sensation during light treatment, proximal toe [1, 3] | sensation during light treatment, second toe [1, 3] | local reaction (edema, redness), proximal toe ([1]; 5 days post light treatment) | local reaction (redness), second toe ([1]; 5 days post light treatment) | appearance of treated toes ([1]; 20 days after exposure to the activating red light) | adverse effects associated with the treatment ([1]; noted by subject) | time for protoporphyrin levels to return to near pretreatment baseline (mouse skin) | time to peak protoporphyrin IX concentration (mouse skin) | local adverse reaction [2] | time until ability of light to specifically excite protoporphyrin IX disappeared (acne lesions) [h] | adverse events unrelated to the treatment site (onychomycosis; in vivo, po) | complete clearance (onychomycosis; oral, complete course of treatment (every day for three months)) |
| --- | --- | --- | --- | --- | --- | --- | --- | --- | --- | --- | --- | --- |
| NCC(=O)CCC(=O)O [ALA, aminolevulinic acid] | only mild tingling and slight stinging | little to no sensation | only slight edema in the area around the nail plate, and mild redness of the nail bed itself | only slight redness in the nail bed | both treated toes appeared normal | no adverse effects | about 18 hours | about six | redness and edema (swelling) | ≤ 24 | – | – |
| CN(C/C=C/C#CC(C)(C)C)Cc1cccc2ccccc12 [terbinafine, terbinafine hydrochloride] | – | – | – | – | – | – | – | – | – | – | gastrointestinal disorders, rashes, disruption of the sense of taste, and liver disorders | only a minority of cases |
